Test results published in the supplement of paper PMC4862054.

Columns and labels:
Experiment in all cases: normalised response (% of control), CellTiter-Glo; higher = more viable cells (100 = DMSO, 0 = benzethonium chloride kill control)
Settings in all cases: incubation time: 72 h
[1] = test system: HCC1599
In short: (§1)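 The table gives the normalised signal for a single concentration in each entry. Breast cancer cell lines were seeded (20 µl suspension) into 384-well plates holding compound at 5 concentrations in 10-fold steps over a compound-specific 10,000-fold range and incubated 72 h, then read for CellTox Green fluorescence (485/520 nm) and CellTiter-Glo luminescence. Normalisation on each plate used 0.1 % DMSO (100) and a positive kill control (0).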

[2] = test system: HDQ-P1
In short: as §1

[3] = test system: MFM-223
In short: as §1

[4] = test system: MDA-MB-231
In short: as §1

[5] = test system: MDA-MB-453
In short: as §1

[6] = test system: HCC1937
In short: as §1

[7] = test system: CAL-120
In short: as §1

[8] = test system: MCF-10A
In short: as §1

[9] = test system: CAL-51
In short: as §1

[10] = test system: MDA-MB-468
In short: as §1

[11] = test system: CAL-148
In short: as §1

[12] = test system: MDA-MB-436
In short: as §1

[13] = test system: DU-4475
In short: as §1

[14] = test system: CAL-85-1
In short: as §1

For `CC[C@@]1(O)C(=O)OCc2c1cc1n(c2=O)Cc2cc3c(CN(C)C)c(O)ccc3nc2-1` [Topotecan] (100 nM), the normalised response [1] was 65.5%, the normalised response [2] was 95.7% and the normalised response [3] was 97.4%. For the same molecule, the normalised response [4] was 92.8%, the normalised response [5] was 133% and the normalised response [6] was 95.7%. For the same molecule, the normalised response [7] was 95.9%, the normalised response [8] was 90.2% and the normalised response [9] was 98.2%. It also gave a normalised response [10] of 62.5%, a normalised response [11] of 62.4% and a normalised response [12] of 75.2%. The normalised response [13] was 77.9% and the normalised response [14] was 85.7%.
